Key:
Experiment in all cases: radiometric filter-binding kinase assay
MAPK13 (human) = MAPK13 (human) (UniProt O15264)
AURKA (human) = AURKA (human) (UniProt O14965)
CHEK1 (human) = CHEK1 (human) (UniProt O14757)
[1] = tested on: AKT2 (human), P31751 [S474D]
MAP3K9 (human) = MAP3K9 (human) (UniProt P80192)
MAP3K5 (human) = MAP3K5 (human) (UniProt Q99683)
PAK6 (human) = PAK6 (human) (UniProt Q9NQU5)
MYLK (human) = MYLK (human) (UniProt Q15746)
MAPK9 (human) = MAPK9 (human) (UniProt P45984)
MAPK10 (human) = MAPK10 (human) (UniProt P53779)
GCK (human) = GCK (human) (UniProt Q12851)
SRC (human) = SRC (human) (UniProt P12931)
AURKB (human) = AURKB (human) (UniProt Q96GD4)
PRKCZ (human) = PRKCZ (human) (UniProt Q05513)
MARK4 (human) = MARK4 (human) (UniProt Q96L34)
[2] = tested on: PAK2 (human), Q13177 [T402E]
HIPK1 (human) = HIPK1 (human) (UniProt Q86Z02)
[3] = molecular target: STK11 CAB39 STRADA (human) (UniProt Q9Y376+Q7RTN6+Q15831)
Chain of STK11 CAB39 STRADA (human) (Q15831 whole entry, looked up): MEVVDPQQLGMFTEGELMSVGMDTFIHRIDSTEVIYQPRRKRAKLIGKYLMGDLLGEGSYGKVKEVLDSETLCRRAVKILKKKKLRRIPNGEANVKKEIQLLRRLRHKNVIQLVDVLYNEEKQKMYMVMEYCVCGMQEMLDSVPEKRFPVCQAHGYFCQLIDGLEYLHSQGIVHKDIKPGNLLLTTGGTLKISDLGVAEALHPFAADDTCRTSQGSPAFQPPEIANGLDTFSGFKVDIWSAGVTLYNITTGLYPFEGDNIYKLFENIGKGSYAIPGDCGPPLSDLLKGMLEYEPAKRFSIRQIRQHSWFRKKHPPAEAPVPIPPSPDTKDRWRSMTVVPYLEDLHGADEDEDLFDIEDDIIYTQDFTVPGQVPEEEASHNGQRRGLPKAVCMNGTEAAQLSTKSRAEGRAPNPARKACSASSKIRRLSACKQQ
Chain of STK11 CAB39 STRADA (human) (Q7RTN6 whole entry, looked up): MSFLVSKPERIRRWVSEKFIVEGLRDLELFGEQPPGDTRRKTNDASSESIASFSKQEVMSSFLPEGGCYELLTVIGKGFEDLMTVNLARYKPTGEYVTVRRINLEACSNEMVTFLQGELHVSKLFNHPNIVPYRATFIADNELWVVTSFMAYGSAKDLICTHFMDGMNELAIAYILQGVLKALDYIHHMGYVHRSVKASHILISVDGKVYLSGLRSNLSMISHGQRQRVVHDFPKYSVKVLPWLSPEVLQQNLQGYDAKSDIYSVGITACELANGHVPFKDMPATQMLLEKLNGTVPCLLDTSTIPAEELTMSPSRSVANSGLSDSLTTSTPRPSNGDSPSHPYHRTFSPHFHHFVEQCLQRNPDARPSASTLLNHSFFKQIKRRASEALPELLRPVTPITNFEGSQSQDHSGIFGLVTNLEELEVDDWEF
Chain of STK11 CAB39 STRADA (human) (Q9Y376 whole entry, looked up): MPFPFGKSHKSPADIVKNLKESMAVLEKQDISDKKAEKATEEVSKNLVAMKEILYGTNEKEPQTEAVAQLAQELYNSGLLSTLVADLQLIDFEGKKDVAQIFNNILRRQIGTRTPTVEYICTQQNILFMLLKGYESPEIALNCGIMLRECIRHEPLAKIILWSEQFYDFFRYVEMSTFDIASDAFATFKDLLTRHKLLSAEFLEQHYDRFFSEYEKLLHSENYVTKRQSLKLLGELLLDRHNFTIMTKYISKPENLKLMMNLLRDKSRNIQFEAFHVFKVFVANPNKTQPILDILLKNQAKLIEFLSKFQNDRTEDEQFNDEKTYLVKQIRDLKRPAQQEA

GSK3B (human) = GSK3B (human) (UniProt P49841)
IGF1R (human) = IGF1R (human) (UniProt P08069)
Chain of IGF1R (human) (P08069 whole entry, looked up): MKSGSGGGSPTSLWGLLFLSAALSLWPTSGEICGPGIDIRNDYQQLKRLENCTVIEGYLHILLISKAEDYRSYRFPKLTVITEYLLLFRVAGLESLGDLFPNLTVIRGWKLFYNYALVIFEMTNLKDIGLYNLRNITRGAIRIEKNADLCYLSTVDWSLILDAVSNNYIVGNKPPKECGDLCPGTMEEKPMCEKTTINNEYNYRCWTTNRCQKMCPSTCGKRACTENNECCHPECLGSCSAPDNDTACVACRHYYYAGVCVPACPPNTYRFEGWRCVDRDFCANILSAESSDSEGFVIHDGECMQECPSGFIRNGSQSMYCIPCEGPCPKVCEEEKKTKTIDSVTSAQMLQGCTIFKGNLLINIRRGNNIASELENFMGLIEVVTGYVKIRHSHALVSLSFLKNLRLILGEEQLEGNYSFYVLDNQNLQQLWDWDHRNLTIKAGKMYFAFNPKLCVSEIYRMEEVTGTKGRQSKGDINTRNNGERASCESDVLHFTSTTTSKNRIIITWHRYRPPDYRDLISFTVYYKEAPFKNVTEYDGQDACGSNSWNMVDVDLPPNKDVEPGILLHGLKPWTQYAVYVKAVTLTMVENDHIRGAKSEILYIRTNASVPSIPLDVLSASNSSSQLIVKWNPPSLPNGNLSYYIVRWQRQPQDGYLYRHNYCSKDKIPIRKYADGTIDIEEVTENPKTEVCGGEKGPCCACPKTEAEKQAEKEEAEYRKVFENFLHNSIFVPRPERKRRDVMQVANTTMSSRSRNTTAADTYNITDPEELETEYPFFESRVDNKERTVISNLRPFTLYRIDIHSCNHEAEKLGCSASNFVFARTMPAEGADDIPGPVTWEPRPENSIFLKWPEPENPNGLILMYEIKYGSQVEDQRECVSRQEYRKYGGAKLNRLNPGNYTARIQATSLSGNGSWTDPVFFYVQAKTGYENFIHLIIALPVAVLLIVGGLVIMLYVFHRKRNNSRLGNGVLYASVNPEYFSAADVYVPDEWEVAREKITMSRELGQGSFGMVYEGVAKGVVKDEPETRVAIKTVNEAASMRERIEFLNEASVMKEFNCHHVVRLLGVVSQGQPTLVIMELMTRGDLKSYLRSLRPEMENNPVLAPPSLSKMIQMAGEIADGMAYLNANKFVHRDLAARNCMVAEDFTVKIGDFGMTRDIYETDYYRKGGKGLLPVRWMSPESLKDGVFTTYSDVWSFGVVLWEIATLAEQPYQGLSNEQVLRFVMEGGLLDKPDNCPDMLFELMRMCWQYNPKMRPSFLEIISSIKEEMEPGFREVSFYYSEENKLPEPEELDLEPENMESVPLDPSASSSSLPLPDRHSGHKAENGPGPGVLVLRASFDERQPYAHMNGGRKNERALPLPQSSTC

FLT1 (human) = FLT1 (human) (UniProt P17948)
EPHB4 (human) = EPHB4 (human) (UniProt P54760)
MAP3K1 (human) = MAP3K1 (human) (UniProt Q13233)
TAOK1 (human) = TAOK1 (human) (UniProt Q7L7X3)
HIPK2 (human) = HIPK2 (human) (UniProt Q9H2X6)
Chain of HIPK2 (human) (Q9H2X6 whole entry, looked up): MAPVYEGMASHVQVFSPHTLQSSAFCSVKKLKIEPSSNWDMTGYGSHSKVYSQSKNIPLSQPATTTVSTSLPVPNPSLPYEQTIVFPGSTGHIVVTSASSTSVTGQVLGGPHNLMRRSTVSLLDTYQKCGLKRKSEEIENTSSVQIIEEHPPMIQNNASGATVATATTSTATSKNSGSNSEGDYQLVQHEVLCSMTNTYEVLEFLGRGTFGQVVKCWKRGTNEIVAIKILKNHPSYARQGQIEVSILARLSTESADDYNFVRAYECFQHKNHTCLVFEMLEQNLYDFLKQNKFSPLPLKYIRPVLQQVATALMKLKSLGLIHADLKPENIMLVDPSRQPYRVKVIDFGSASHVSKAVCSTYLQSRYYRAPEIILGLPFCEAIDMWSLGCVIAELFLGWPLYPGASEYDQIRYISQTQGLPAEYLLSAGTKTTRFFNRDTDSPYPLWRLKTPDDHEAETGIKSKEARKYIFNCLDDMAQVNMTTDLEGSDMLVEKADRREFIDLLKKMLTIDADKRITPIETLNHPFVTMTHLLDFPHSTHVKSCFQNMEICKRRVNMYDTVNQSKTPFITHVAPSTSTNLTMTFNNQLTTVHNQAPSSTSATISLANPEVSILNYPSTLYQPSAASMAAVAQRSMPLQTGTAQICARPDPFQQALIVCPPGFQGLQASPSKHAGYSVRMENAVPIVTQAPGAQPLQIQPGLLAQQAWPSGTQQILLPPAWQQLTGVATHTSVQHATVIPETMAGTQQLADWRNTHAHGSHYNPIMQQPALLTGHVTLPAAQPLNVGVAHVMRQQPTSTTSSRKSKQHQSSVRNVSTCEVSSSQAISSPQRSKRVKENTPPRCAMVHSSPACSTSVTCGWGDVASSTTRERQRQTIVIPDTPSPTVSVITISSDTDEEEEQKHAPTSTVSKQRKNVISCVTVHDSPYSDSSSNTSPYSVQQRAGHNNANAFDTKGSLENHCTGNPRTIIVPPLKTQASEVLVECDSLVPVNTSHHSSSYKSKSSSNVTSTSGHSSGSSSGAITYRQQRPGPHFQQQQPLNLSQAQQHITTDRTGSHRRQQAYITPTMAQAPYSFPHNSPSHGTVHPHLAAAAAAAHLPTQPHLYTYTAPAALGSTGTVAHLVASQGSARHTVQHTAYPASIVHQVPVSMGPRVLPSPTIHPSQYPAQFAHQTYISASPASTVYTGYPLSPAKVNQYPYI

FGFR1 (human) = FGFR1 (human) (UniProt P11362)
EEF2K (human) = EEF2K (human) (UniProt O00418)
YES1 (human) = YES1 (human) (UniProt P07947)
EPHB1 (human) = EPHB1 (human) (UniProt P54762)
TTK (human) = TTK (human) (UniProt P33981)
MELK (human) = MELK (human) (UniProt Q14680)
Chain of MELK (human) (Q14680 whole entry, looked up): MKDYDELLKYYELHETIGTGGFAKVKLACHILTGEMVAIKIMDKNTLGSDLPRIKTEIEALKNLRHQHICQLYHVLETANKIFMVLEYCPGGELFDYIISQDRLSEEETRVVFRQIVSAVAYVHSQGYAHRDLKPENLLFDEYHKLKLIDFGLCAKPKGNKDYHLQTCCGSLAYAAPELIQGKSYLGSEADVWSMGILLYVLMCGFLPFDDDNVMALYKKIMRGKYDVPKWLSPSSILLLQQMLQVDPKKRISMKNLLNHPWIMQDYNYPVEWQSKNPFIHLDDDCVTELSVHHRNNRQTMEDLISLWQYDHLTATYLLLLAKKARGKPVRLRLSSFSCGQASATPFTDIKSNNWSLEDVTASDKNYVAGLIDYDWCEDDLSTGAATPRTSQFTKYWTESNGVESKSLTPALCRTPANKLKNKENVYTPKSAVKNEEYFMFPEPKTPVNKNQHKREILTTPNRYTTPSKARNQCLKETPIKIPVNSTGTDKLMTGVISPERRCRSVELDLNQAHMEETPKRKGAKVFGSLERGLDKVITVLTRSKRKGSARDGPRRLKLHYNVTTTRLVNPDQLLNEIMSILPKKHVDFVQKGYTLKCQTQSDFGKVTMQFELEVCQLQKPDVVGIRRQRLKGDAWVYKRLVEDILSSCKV

CSNK1D (human) = CSNK1D (human) (UniProt P48730)
MAP2K2 (human) = MAP2K2 (human) (UniProt P36507)
PKN2 (human) = PKN2 (human) (UniProt Q16513)
MAPK1 (human) = MAPK1 (human) (UniProt P28482)
SYK (human) = SYK (human) (UniProt P43405)

Chain of MAPK9 (human) (P45984 whole entry, looked up): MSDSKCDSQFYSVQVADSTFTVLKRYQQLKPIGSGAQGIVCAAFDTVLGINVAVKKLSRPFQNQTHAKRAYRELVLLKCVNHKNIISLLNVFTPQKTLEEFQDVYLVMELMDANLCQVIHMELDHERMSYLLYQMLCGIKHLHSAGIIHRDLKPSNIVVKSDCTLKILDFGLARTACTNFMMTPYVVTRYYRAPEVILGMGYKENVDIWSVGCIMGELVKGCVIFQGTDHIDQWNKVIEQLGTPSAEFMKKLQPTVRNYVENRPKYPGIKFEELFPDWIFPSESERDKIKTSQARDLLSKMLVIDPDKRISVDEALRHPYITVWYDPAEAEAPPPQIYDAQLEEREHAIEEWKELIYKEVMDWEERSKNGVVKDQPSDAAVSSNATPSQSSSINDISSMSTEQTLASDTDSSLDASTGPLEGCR

c1ccc2c(-c3cnn4cc(-c5ccc(N6CCNCC6)cc5)cnc34)ccnc2c1
residual activity (MAPK13 (human); compound 0.1 µM): 89%
residual activity (MAPK13 (human); compound 1.0 µM): 110%
residual activity (MAPK13 (human); compound 10.0 µM): 72%
residual activity (AURKA (human); compound 0.1 µM): 100%
residual activity (AURKA (human); compound 1.0 µM): 91%
residual activity (AURKA (human); compound 10.0 µM): 56%
residual activity (CHEK1 (human); compound 0.1 µM): 101%
residual activity (CHEK1 (human); compound 1.0 µM): 109%
residual activity (CHEK1 (human); compound 10.0 µM): 96%
residual activity ([1]; compound 0.1 µM): 77%
residual activity ([1]; compound 1.0 µM): 91%
residual activity ([1]; compound 10.0 µM): 58%
residual activity (MAP3K9 (human); compound 0.1 µM): 104%
residual activity (MAP3K9 (human); compound 1.0 µM): 70%
residual activity (MAP3K5 (human); compound 0.1 µM): 93%
residual activity (MAP3K5 (human); compound 1.0 µM): 90%
residual activity (MAP3K5 (human); compound 10.0 µM): 91%
residual activity (PAK6 (human); compound 0.1 µM): 108%
residual activity (PAK6 (human); compound 1.0 µM): 107%
residual activity (PAK6 (human); compound 10.0 µM): 100%
residual activity (MYLK (human); compound 0.1 µM): 104%
residual activity (MYLK (human); compound 1.0 µM): 107%
residual activity (MYLK (human); compound 10.0 µM): 60%
residual activity (MAPK9 (human); compound 0.1 µM): 88%
residual activity (MAPK9 (human); compound 1.0 µM): 103%
residual activity (MAPK9 (human); compound 10.0 µM): 83%
residual activity (MAPK10 (human); compound 0.1 µM): 98%
residual activity (MAPK10 (human); compound 1.0 µM): 97%
residual activity (MAPK10 (human); compound 10.0 µM): 94%
residual activity (GCK (human); compound 0.1 µM): 37%
residual activity (GCK (human); compound 1.0 µM): 11%
residual activity (GCK (human); compound 10.0 µM): 3%
residual activity (SRC (human); compound 1.0 µM): 52%
residual activity (SRC (human); compound 10.0 µM): 16%
residual activity (AURKB (human); compound 0.1 µM): 95%
residual activity (AURKB (human); compound 1.0 µM): 76%
residual activity (AURKB (human); compound 10.0 µM): 47%
residual activity (PRKCZ (human); compound 0.1 µM): 88%
residual activity (PRKCZ (human); compound 1.0 µM): 93%
residual activity (PRKCZ (human); compound 10.0 µM): 55%
residual activity (MARK4 (human); compound 0.1 µM): 75%
residual activity (MARK4 (human); compound 1.0 µM): 58%
residual activity (MARK4 (human); compound 10.0 µM): 24%
residual activity ([2]; compound 0.1 µM): 100%
residual activity ([2]; compound 10.0 µM): 94%
residual activity (HIPK1 (human); compound 0.1 µM): 97%
residual activity (HIPK1 (human); compound 1.0 µM): 99%
residual activity (HIPK1 (human); compound 10.0 µM): 85%
residual activity ([3]; compound 0.1 µM): 109%
residual activity ([3]; compound 1.0 µM): 98%
residual activity ([3]; compound 10.0 µM): 80%
residual activity (GSK3B (human); compound 0.1 µM): 81%
residual activity (GSK3B (human); compound 1.0 µM): 83%
residual activity (GSK3B (human); compound 10.0 µM): 62%
residual activity (IGF1R (human); compound 0.1 µM): 112%
residual activity (IGF1R (human); compound 1.0 µM): 99%
residual activity (IGF1R (human); compound 10.0 µM): 89%
residual activity (FLT1 (human); compound 0.1 µM): 48%
residual activity (FLT1 (human); compound 10.0 µM): 0%
residual activity (EPHB4 (human); compound 0.1 µM): 96%
residual activity (EPHB4 (human); compound 1.0 µM): 89%
residual activity (EPHB4 (human); compound 10.0 µM): 46%
residual activity (MAP3K1 (human); compound 0.1 µM): 90%
residual activity (MAP3K1 (human); compound 1.0 µM): 83%
residual activity (MAP3K1 (human); compound 10.0 µM): 60%
residual activity (TAOK1 (human); compound 0.1 µM): 102%
residual activity (TAOK1 (human); compound 1.0 µM): 110%
residual activity (TAOK1 (human); compound 10.0 µM): 79%
residual activity (HIPK2 (human); compound 0.1 µM): 93%
residual activity (HIPK2 (human); compound 1.0 µM): 91%
residual activity (HIPK2 (human); compound 10.0 µM): 56%
residual activity (FGFR1 (human); compound 0.1 µM): 69%
residual activity (FGFR1 (human); compound 1.0 µM): 20%
residual activity (FGFR1 (human); compound 10.0 µM): 8%
residual activity (EEF2K (human); compound 0.1 µM): 95%
residual activity (EEF2K (human); compound 1.0 µM): 96%
residual activity (EEF2K (human); compound 10.0 µM): 79%
residual activity (YES1 (human); compound 0.1 µM): 73%
residual activity (YES1 (human); compound 1.0 µM): 21%
residual activity (YES1 (human); compound 10.0 µM): 7%
residual activity (EPHB1 (human); compound 0.1 µM): 117%
residual activity (EPHB1 (human); compound 10.0 µM): 100%
residual activity (TTK (human); compound 0.1 µM): 89%
residual activity (TTK (human); compound 1.0 µM): 101%
residual activity (TTK (human); compound 10.0 µM): 61%
residual activity (MELK (human); compound 0.1 µM): 81%
residual activity (MELK (human); compound 1.0 µM): 54%
residual activity (MELK (human); compound 10.0 µM): 18%
residual activity (CSNK1D (human); compound 0.1 µM): 91%
residual activity (CSNK1D (human); compound 1.0 µM): 69%
residual activity (CSNK1D (human); compound 10.0 µM): 22%
residual activity (MAP2K2 (human); compound 0.1 µM): 88%
residual activity (MAP2K2 (human); compound 1.0 µM): 91%
residual activity (MAP2K2 (human); compound 10.0 µM): 52%
residual activity (PKN2 (human); compound 0.1 µM): 65%
residual activity (PKN2 (human); compound 1.0 µM): 69%
residual activity (PKN2 (human); compound 10.0 µM): 37%
residual activity (MAPK1 (human); compound 0.1 µM): 89%
residual activity (MAPK1 (human); compound 1.0 µM): 89%
residual activity (MAPK1 (human); compound 10.0 µM): 107%
residual activity (SYK (human); compound 0.1 µM): 82%
residual activity (SYK (human); compound 1.0 µM): 80%
residual activity (SYK (human); compound 10.0 µM): 36%
